In patent US20080119517A1, “COMPOSITIONS AND METHODS FOR PROTECTING AGAINST MITOCHONDRIA COMPONENT-MEDIATED PATHOLOGY” (Cornell Research Foundation, Inc., priority 2003, published 2008):

How the values were obtained:
[1] = system: liver mitochondria; details: cited from earlier work
[2] = system: humans; details: human, in vivo; cited from earlier work
[3] = system: MPTP-induced dopamine depletion and dopaminergic neuron loss; assay: MPTP experimental animal model for Parkinson's Disease; format: in vivo
Text: 1-Methyl-4-phenyl-1,2,3,6-tetrahydropyridine (MPTP) has been employed as an experimental animal model for Parkinson's Disease. As evidenced by FIG. 9, promethazine appeared to have no effect on striatal dopamine levels at base line.

[4] = system: primary cerebrocortical neurons; assay: Oxygen-glucose deprivation (OGD) of cultured primary cerebrocortical neurons; format: cell-based, mouse; details: for OGD-mediated neuronal death (LDH release): promethazine 0.1 μM (p=0.05) and 0.5 μM (p<0.001)
Protocol: Heterocyclic-mediated protection was next examined in two models of stroke: (i) oxygen-glucose deprivation (OGD) of cultured primary cerebrocortical neurons, and; (ii) in the mouse, middle cerebral artery occlusion (MCAO)/reperfusion.
Neurotoxicity studies were conducted as previously described. […] Cerebral cortex of mouse embryos at day 15 (E15) were freed from meninges and separated from olfactory bulb and hippocampus.
OGD of primary cerebrocortical neurons is a widely used cell culture model of stroke-related pathology. […] Caspase-3 activation plays a key role in hypoxia/ischemia-mediated injury. To gam insight into the mechanism of promethazine-mediated neuroprotection, it was evaluated whether this compound could inhibit OGD-mediated caspase-3 activation.

[5] = system: mouse middle cerebral artery occlusion (MCAO)/reperfusion; assay: Middle cerebral artery occlusion (MCAO)/reperfusion, promethazine study; format: in vivo
Protocol: Middle cerebral artery occlusion/reperfusion studies were conducted as previously described. […] All animal experiments were conducted in accordance with National Institutes of Health and institutional guidelines. Male C57/B6 (Charles River Laboratories) mice weighing 18-29 g were housed in standard temperature (22±1° C.) and light-controlled (light on 07:00-21:00) environment with ad libitum access to food and water. Weight of animals undergoing stroke were restricted to less than 22 g. Animals undergoing stroke were randomized to two groups: untreated OP injection with 0.9% saline) and treated (IP injection with promethazine solution). Weight of animals undergoing sham operations was liberalized to 18-29 g. Surgery and Occlusion: Immediately before surgery, each mouse was anesthetized with 2% isoflurane (70% N2O/30% O2). During surgery, isoflurane was lowered to 1%. A midline incision was made in the neck and the right common carotid artery was dissected. The right MCA was occluded with a 7-0 nylon filament after permanent ligation of the external carotid artery and temporary ligation of the common carotid artery. […] Right MCA occlusion was defined as greater than or equal to a 90% drop of peak velocity measured by the laser Doppler flowmetry drop. […] The occluding filament was removed after 120 minutes. Sham operations consisted of the same duration and concentration of anesthesia, midline incision, doppler probe insertion over right temporal bone, and dissection of common carotid artery but no manipulation of the common carotid artery or external carotid artery. The surgeon was bided to treatment group. All mice were sacrificed at 24 hrs post perfusion. Experiments were in accordance with protocols approved by the Harvard Medical School Animal Care Committee. Drug Treatment: Both treated and control groups received two IP injections: the first one delivered 1 hr prior to ischemia and the second delivered 12 hrs later. Each i.p. dose was 10 mg/kg (in 0.5 ml) of promethazine dissolved in 0.9% NaCl or an equal volume of buffer alone. […] Determination of Infarct Volume: After 24 hrs of reperfusion, the mice were sacrificed. The brains were quickly removed and chilled for 2 minutes. The cerebellum was removed, Coronal sections (2 mm thick; n=6) were cut in a craniotome. […] After staining, each slice was scanned by an HP scanjet 4200 C, The unstained areas in each hemisphere were quantified and the ischemic area per slice=left (normal side)-right (ischemic side). […] The infarct volume was calculated by summing up the infracted areas in the 6 slices and calculating the volume for a cylinder (area×height). […] The examiner was blinded to treatment group.

[6] = system: 3-nitropropionic acid induced striatal lesions in Lewis rats; assay: 3-nitropropionic acid striatal lesion model (Huntington's Disease); format: in vivo, rat
Protocol: Male Lewis 344 rats were administered 3-nitroproprionic acid by subcutaneous Alzet pumps. 3-Nitropropionic acid is a mitochondrial toxin which causes selective degeneration in the basal ganglia, mice, rats and primates. The lesions that it produces highly mimic the neuropathologic features associated with Huntington's Disease. The male Lewis rats weighed from about 340 to abut 370 grams and were obtained from Charles River Laboratories. At twelve weeks of age, the subcutaneous pumps were implanted. The concentration for each individual rat was calculated so that the animals received a dose of 38 mg/kg/d. Control animals were implanted with empty osmotic pumps. The 3-nitropropionic acid was administered for one week. Animals were treated with either phosphate buffered saline (PBS) promethazine in PBS at doses of 5 to 40 mg/kg/d. One week after the administration of the compound the rats were deeply anesthetized and transcardially perfused with 4% paraformaldehyde in PBS. Subsequently, 50 μm sections were obtained and stained for nissel substance. The lesion volumes were then calculated using stereologic procedures.

[7] = system: phospholipase A2; format: biochemical
[8] = system: heart during ischemia; details: cited from earlier work

NCCc1c[nH]cn1 [Histamine]
swelling of liver mitochondria [1]: cause swelling

CC(CN1c2ccccc2Sc2ccccc21)N(C)C (stereo not shown) [Promethazine]
tolerability in humans [2]: well-tolerated drug with few adverse side effects | MPTP-induced reduction in striatal dopamine levels ([3]; 20 mg/kg): significantly attenuated | depletion of striatal dopamine levels, dose response ([3]; 2.5, 5, and 40 mg/kg examined, optimal effects at 10 and 40 mg/kg): dose-dependent neuroprotection | loss of dopaminergic neurons in the substantia nigra pars compacta ([3]; 50% cell loss following MPTP): significantly attenuated | striatal dopamine levels at base line ([3]; without MPTP): no effect | OGD-mediated caspase-3 activation [4]: reduced | OGD-mediated neuronal death (LDH release) [4]: inhibited | OGD-mediated neuronal death (LDH release) ([4]; listed as promethazine): protection | reduction in lesion size compared with saline-treated mice ([5]; 10 mg/kg i.p. 1 hr prior to ischemia and 12 hrs later, 24 hrs reperfusion, n=13, p<0.005): 53% | reduction of maximal infarct size ([5]; 10 mg/kg i.p. twice): 65% | reduction of variability of the injury ([5]; 10 mg/kg i.p. twice): 65% | neurologic score ([5]; 30 minute post-ischemia evaluation): not different | neurologic impairment score ([5]; 24 hours following MCAO, p<0.05): significantly improved | protection from MCA occlusion/reperfusion ([5]; total stroke volume P<0.005): protects | striatal lesion volume ([6]; 3-nitropropionic acid 38 mg/kg/d for one week, promethazine 5 to 40 mg/kg/d, untreated ~14 mm^3): ~4 mm^3 | 3-nitropropionic induced lesions ([6]; increasing dosages): blocked | PLA2 inhibition [7]: does not appear to be a strong

CCN(CC)CCCC(C)Nc1c2ccc(Cl)cc2nc2ccc(OC)cc12 (stereo not shown) [Quinacrine]
protection in the heart during ischemia [8]: protective agent
